Experimental findings from patent US7557111B2, “Substituted thieno[3,2-d]pyrimidines as CRF receptor antagonists” (Taisho Pharmaceutical Co., Ltd., priority 2004, dated 2009) are described below.

Counter-ions that a name gives are not always drawn.

Broadly, the melting point is the temperature, or range, at which the solid turns liquid. As for `Cc1nc(N2CCC(CO)CC2)c2sc(C)c(-c3c(C)cc(Br)cc3C)c2n1` (as salt: HCl) [compound 1-004, {1-[7-(4-bromo-2,6-dimethyl-phenyl)-2,6-dimethyl-thieno[3,2-d]pyrimidin-4-yl]-piperidin-4-yl}-methanol hydrochloride], the melting point lay in the range of 242 to 244 °C.
